This is an account of results in patent US20130064815A1, “INDUCING APOPTOSIS IN QUIESCENT CELLS” (THE TRUSTEES OF PRINCETON UNIVERSITY, priority 2011, published 2013).

The subject of assay [1] is skin papillomas and carcinomas. Conditions: topical 7,12-dimethylbenz(a)anthracene (DMBA), mice; cited from earlier work.
In assay [2] the test system is colon cancer. Conditions: in vivo; cited from earlier work.
Assay [3] relates to oxidized proteins. Put plainly: oxidized (carbonylated) protein immunoblot after DNP derivatization. The class given is cell-based, human. Conditions: DHEA treatment. An excerpt: Glutathione plays an important role in ROS scavenging, both by acting as a cofactor for glutathione peroxidase and via direct interaction with ROS (Jones et al., “Kinetics of superoxide scavenging by glutathione: an evaluation of its role in the removal of mitochrondrial superoxide, Biochem Soc Trans 31, 1337-1339, 2003, which is incorporated herein by reference as if fully set forth). The effects of DHEA treatment on the levels of oxidized proteins were monitored in proliferating and 7 dSS fibroblasts (FIG. 20). Oxidized, carbonylated proteins were derivatized with […] and monitored with an anti-2,4, dinitrophenol antibody. […] Thus, the 7 dSS fibroblasts rely on DHEA-sensitive pathways to maintain low levels of oxidized protein.
In addition to its role in providing amino acids and energy under starvation conditions, autophagy is involved in maintenance of cellular homeostasis and resistance to tumorigenesis through degradation of old or damaged proteins and entire organelles. […] To monitor the extent of protein oxidation in proliferating and contact-inhibited fibroblasts, the protein carbonyl groups were derivatized using 2,4-dinitrophenylhydrazine (DNP), and monitored using immunoblotting with an antibody that recognizes the covalently added DNP. […]
In general terms: In western blotting, separated proteins are transferred to a membrane and probed.

The test system of assay [4] is spontaneous breast cancer. Conditions: long-term treatment; female C3H (Avy/a) mice; cited from earlier work.
In assay [5] the test system is primary human fibroblasts. Put plainly: caspase 3/7 activity apoptosis assay (ApoTox-Glo) in proliferating and quiescent fibroblasts. It counts as cell-based. Conditions: for apoptosis-inducing effect (caspase-3/7 activity normalized to vehicle): four days treatment. How it is done: Referring to FIG. 2A, primary human fibroblasts were tested either in a proliferating state or after being induced into quiescence. Quiescence may be induced by either contact inhibition or serum starvation. Cells were treated with DHEA for four days, with bafilomycin added on the fourth day. Apoptosis was assessed based on the activity of caspase 3/7 for a fluorogenic substrate.
PPP inhibition and apoptosis analysis: Apoptosis was measured based on the levels of caspase 3/7 released into the media using the ApoTox-Glo Triplex Assay according to the manufacturer's instructions (Promega Corp., Madison, Wis.). Cells were plated in triplicate at 10,000 cells per well in white-walled, clear-bottom 96-well plates (Costar, Corning Life Sciences, Lowell, Mass.). For contact inhibition, cells were plated 7 days prior to the start of treatment, for serum starvation cells were plated 4 days prior to treatment and switched to 0.1% serum media for the remaining 3 days, while proliferating cells were plated the day prior to the start of treatment. […] Cells in serum starvation conditions were incubated in 0.1% serum during treatment as well. The apoptosis reagent was added at 100 μl per well and incubated for 1 h prior to reading. Luminescence was read from the top using a Synergy-2 plate reader (Biotek, Winooski, Vt.). Luminescence data were normalized to the vehicle only condition.
Apoptosis induction was assessed by monitoring caspase 3/7 activity using a luminescent caspase substrate. This assay is optimized for high-throughput screening in 96-well plates and allows multiple concentrations and combination of drugs to be tested in triplicate at different time points. […] Therefore, this assay was used to compare proliferating and serum-starved cells only.

The test system of assay [6] is tumor cells. Conditions: intraperitoneal injection of tumor cells; cited from earlier work.
The test system of assay [7] is intracellular reduced glutathione. Nature of the assay: intracellular reduced glutathione by monochlorobimane flow cytometry. It counts as cell-based, human. Conditions: serum-starved fibroblasts after DHEA treatment. As for the experimental part: It was tested whether the increase in glutathione reductase activity in serum-starved fibroblasts was associated with elevated levels of reduced glutathione. 7 dSS fibroblasts were focused on because they had the highest activity of the four enzymes in the NADPH production pathway. Flow cytometry was used to monitor the levels of glutathione in proliferating and 7 dSS fibroblasts with monochlorobimane (MCB), a compound that forms blue fluorescent adducts when it reacts with intracellular reduced glutathione (Sebastia et al., “Evaluation of fluorescent dyes for measuring intracellular glutathione content in primary cultures of human neurons and beuroblastoma SH-SY5Y, Cytometry A 51, 16-25, 2003, which is incorporated herein by reference as if fully set forth). […] The results are consistent with a model in which the NADPH production program activated in the serum-starved fibroblasts contributes to a larger pool of reduced glutathione.
It was expected that the reduction in NADPH levels that resulted from DHEA treatment would result in lower activity of glutathione reductase and thus a decrease in the levels of reduced glutathione. […] The depletion of glutathione in response to DHEA could be an important part of the apoptotic pathway. […]
Background: A flow cytometer gives signals particle by particle.

Entries after “also recorded” stand apart in the source; their conditions may differ.

Consider `C[C@]12CC[C@H](O)CC1=CC[C@@H]1[C@@H]2CC[C@]2(C)C(=O)CC[C@@H]12` [DHEA, dehydroepiandrosterone], for which the “development of skin papillomas and carcinomas” value in assay [1] is “reduced”. Moreover, in assay [2], the “effect on colon cancer” value is listed as “chemopreventative effect”. Further, the oxidized protein levels result in assay [3] (7 dSS fibroblasts) was “significantly increased”; in assay [3] (proliferating fibroblasts) it was “little effect”. Further, the “spontaneous breast cancer occurrence” value in assay [4] was “inhibit spontaneous breast cancer occurrence”. Moreover, the “apoptosis-inducing effect (caspase-3/7 activity normalized to vehicle)” value was “significantly stronger; also recorded: statistically significantly different at all doses except 100 μM” in assay [5] (fibroblasts confluent 11 days (CI11) vs proliferating) and “yet stronger; also recorded: particularly sensitive; also recorded: statistically significantly different at all doses” in assay [5] (fibroblasts serum-starved seven days (SS7) vs proliferating). Moreover, in assay [5] (treatment with DHEA alone), the caspase induction was 6- to 8 fold. Besides, the tumor growth result in assay [6] was “inhibit tumor growth”. For the same molecule, in assay [7], the “intracellular GSH pools” value is on record as “smaller pools of intracellular GSH”.
